Laboratory results published in US10077261B2, “Imidazolin-5-one derivative useful as FASN inhibitors for the treatment of cancer” (Janssen Pharmaceutica NV, priority 2012, dated 2018).

Experiments:
[1] = target: T1, hFASN enzyme (full length) (Homo sapiens, UniProt P49327); assay: Fatty Acid Synthase (FASN) inhibition scintillation proximity assay; format: biochemical; conditions: for inhibition at 10 µM: read-out: Human FASN % inhibition @ 10 μM, 10 μM test compound; for IC50: read-out: Human FASN pIC50 (converted)
T1 construct: 10 μL hFASN enzyme (full length, 300 ng, purified in house); made in house
T1 sequence (P49327 whole entry): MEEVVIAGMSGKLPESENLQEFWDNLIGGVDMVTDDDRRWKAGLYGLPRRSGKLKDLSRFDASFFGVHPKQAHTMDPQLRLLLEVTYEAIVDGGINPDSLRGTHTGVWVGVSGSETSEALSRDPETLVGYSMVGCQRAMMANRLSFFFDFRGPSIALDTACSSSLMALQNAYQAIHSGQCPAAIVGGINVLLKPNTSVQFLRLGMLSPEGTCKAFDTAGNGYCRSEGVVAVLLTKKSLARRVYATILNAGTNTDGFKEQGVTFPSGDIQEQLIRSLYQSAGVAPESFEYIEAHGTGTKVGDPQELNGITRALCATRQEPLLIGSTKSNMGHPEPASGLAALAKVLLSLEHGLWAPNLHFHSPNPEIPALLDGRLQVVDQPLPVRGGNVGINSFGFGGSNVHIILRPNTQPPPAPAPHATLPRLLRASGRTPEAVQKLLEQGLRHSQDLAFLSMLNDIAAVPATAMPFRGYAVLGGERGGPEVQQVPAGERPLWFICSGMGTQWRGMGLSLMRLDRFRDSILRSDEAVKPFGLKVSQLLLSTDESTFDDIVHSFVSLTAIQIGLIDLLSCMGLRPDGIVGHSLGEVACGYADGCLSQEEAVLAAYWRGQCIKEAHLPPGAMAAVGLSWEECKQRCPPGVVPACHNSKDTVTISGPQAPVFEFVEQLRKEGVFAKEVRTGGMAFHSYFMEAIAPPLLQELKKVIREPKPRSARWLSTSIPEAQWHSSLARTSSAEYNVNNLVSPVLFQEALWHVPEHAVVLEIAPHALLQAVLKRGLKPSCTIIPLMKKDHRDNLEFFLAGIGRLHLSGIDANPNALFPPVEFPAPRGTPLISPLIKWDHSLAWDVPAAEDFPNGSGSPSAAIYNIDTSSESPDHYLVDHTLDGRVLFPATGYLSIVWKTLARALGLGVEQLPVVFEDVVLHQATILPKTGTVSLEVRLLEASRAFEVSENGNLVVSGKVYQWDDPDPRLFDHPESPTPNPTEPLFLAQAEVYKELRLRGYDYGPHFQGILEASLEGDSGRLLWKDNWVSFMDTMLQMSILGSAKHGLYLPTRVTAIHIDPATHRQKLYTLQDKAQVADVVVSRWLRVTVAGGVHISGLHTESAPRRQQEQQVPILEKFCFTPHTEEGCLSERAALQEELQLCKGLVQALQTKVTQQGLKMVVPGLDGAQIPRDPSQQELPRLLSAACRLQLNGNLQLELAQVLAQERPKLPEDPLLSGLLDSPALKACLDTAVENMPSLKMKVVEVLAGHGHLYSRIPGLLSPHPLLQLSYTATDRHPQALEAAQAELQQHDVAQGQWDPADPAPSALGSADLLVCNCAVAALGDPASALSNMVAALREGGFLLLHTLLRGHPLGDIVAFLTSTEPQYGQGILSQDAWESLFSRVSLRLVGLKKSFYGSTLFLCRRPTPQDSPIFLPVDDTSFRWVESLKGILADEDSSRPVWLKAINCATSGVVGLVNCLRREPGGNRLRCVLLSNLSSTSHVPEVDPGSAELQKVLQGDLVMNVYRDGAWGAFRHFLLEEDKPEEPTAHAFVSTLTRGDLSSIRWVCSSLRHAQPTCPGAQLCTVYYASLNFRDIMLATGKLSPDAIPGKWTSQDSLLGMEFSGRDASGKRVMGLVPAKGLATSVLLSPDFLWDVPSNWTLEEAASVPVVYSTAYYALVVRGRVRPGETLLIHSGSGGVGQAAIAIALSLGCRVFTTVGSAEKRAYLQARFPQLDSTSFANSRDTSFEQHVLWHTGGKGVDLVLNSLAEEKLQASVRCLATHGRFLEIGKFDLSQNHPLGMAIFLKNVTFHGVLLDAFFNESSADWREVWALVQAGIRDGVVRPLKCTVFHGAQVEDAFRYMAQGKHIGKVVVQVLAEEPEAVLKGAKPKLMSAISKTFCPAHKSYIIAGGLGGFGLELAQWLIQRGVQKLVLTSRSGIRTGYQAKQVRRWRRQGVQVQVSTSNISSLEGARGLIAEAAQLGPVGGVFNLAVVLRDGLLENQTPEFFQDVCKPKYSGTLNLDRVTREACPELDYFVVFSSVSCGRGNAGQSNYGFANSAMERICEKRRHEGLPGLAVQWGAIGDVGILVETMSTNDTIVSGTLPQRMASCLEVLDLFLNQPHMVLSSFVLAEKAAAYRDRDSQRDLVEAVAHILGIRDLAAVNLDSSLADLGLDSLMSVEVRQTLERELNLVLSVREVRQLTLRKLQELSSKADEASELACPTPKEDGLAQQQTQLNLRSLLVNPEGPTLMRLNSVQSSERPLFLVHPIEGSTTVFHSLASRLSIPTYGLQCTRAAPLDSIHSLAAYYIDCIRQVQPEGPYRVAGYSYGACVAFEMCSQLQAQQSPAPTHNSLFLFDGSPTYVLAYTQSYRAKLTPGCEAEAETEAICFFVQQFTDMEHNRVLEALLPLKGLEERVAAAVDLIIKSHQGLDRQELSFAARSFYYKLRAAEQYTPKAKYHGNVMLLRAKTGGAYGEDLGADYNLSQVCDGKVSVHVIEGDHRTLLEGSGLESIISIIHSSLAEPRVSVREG
Summary of the method: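 Scintillation proximity format: in-house full-length enzyme, 300 ng per well, pH 7.5 phosphate/DTT buffer, ³H-acetyl-CoA and malonyl-CoA. Emission counted on LEADseeker at 610 nm at least 24 h after stopping.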

[2] = system: A2780 ovarian cells; assay: A2780 ovarian cell proliferation assay in lipid reduced medium, with palmitate (MTT); format: cell-based; conditions: Homo sapiens, A2780, 96 h; read-out: pIC50 A2780 Ovarian Cell, With Palmitate (converted)
Summary of the method: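 In this palmitate-supplemented format, compound dilutions (30 μM down to 0.01 μM) are added to cells in lipid-reduced serum with 25 μM palmitate, 0.2% fatty-acid-free BSA and 0.25% ethanol. After four days (96 h) MTT absorbance at 544 nm is recorded and fitted by minimum sum of squares.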

[3] = system: A2780 ovarian cells; assay: A2780 ovarian cell proliferation assay in lipid reduced medium, without palmitate (MTT); format: cell-based; conditions: Homo sapiens, A2780, 96 h; read-out: pIC50 A2780 Ovarian Cell, Without Palmitate (converted)
[4] = target: Fatty Acid Synthase Keto-reductase Domain (FASN KR) (Homo sapiens, UniProt P49327); assay: Fatty Acid Synthase keto-reductase domain (FASN KR) inhibition, NADPH oxidation at 340 nm
Fatty Acid Synthase Keto-reductase Domain (FASN KR), sequence (P49327 whole entry, the tested form may be a part): as the sequence (P49327 whole entry) above
Method: After 20 minutes incubation at room temperature the plate was measured again (T2).
The decrease in absorbance was calculated as (Absorbance before incubation T1)−(Absorbance following incubation T2).
A plot of Controlmin versus test compound concentration was fitted to a 4-parameter logistic curve using a non-linear least squares regression method.

Row | Compound | inhibition at 10 µM [1] [%] | IC50 [1] [nM] | IC50 [2] [µM] | IC50 [3] [nM] | IC50 [4] [nM]
1 | O=C(C1CC1)N1CC[C@@H](CN2C(=O)C3(CCCC3)N=C2c2ccc(-c3nc4ccccc4o3)cc2)C1 [compound 36, 2-[4-(1,3-Benzoxazol-2-yl)phenyl]-3-{[(3R)-1-(cyclopropylcarbonyl)pyrrolidin-3-yl]methyl}-1,3-diazaspiro[4.4]non-1-en-4-one] | 96.2 | 550 | > 10 | 3470 | 1410
2 | Cn1ncc2ccc(-c3ccc(C4=NC5(CC5)C(=O)N4CC4CN(C(=O)C5CC5)C4)cc3)cc21 [compound 38, 6-{[1-(Cyclopropylcarbonyl)azetidin-3-yl]methyl}-5-[4-(1-methyl-1H-indazol-6-yl)phenyl]-4,6-diazaspiro[2.4]hept-4-en-7-one] | 94.9 | 269 | > 10 | 1200 | 646
3 | O=C(C1CC1)N1CC(CN2C(=O)C3(CC3)N=C2c2ccc(-c3ccc4[nH]ccc4c3)cc2)C1 [compound 40, 6-{[1-(Cyclopropylcarbonyl)azetidin-3-yl]methyl}-5-[4-(1H-indol-5-yl)phenyl]-4,6-diazaspiro[2.4]hept-4-en-7-one] | 106 | 18.6 | > 10 | 72.4 | 42.7
4 | N#Cc1ccc(-c2ccc(C3=NC4(CC4)C(=O)N3CC3CN(C(=O)C4CC4)C3)cc2)cc1 [compound 41, 4′-(6-{[1-(Cyclopropylcarbonyl)azetidin-3-yl]methyl}-7-oxo-4,6-diazaspiro[2.4]hept-4-en-5-yl)biphenyl-4-carbonitrile] | 92.6 | 457 | > 10 | 1200 | 851
5 | N#Cc1ccc(-c2ccc(C3=NC4(CC4)C(=O)N3C[C@@H]3CCN(C(=O)C4CC4)C3)cc2)cc1 [compound 48, 4′-(6-{[(3R)-1-(Cyclopropylcarbonyl)pyrrolidin-3-yl]methyl}-7-oxo-4,6-diazaspiro[2.4]hept-4-en-5-yl)biphenyl-4-carbonitrile] | 108 | 97.7 | > 10 | 182 | 282
6 | O=C(C1CC1)N1CC(CN2C(=O)C3(CC3)N=C2c2ccc(-c3ccc4[nH]ncc4c3)cc2)C1 [compound 51, 6-{[1-(Cyclopropylcarbonyl)azetidin-3-yl]methyl}-5-[4-(1H-indazol-5-yl)phenyl]-4,6-diazaspiro[2.4]hept-4-en-7-one] | 102 | 79.4 | > 10 | 123 | 162
7 | O=C(C1CC1)N1CC(CN2C(=O)C3(CC3)N=C2c2ccc(-c3ccc4ocnc4c3)cc2)C1 [compound 52, 5-[4-(1,3-Benzoxazol-5-yl)phenyl]-6-{[1-(cyclopropylcarbonyl)azetidin-3-yl]methyl}-4,6-diazaspiro[2.4]hept-4-en-7-one] | 89.9 | 759 | > 10 | 1860 | 1780
8 | Cn1cc(-c2ccc(-c3ccc(C4=NC5(CC5)C(=O)N4CC4CCN(C(=O)C5CC5)CC4)cc3)cc2)cn1 [compound 56, 6-{[1-(Cyclopropylcarbonyl)piperidin-4-yl]methyl}-5-[4′-(1-methyl-1H-p;yrazol-4-yl)biphenyl-4-yl]-4,6-diazaspiro[2.4]hept-4-en-7-one] | 89.2 | 407 | 6.03 | 1580 | 1380
9 | O=C(C1CC1)N1CCC(CN2C(=O)C3(CC3)N=C2c2ccc(-c3ccc4scnc4c3)cc2)CC1 [compound 57, 5-[4-(1,3-Benzothiazol-5-yl)phenyl]-6-{[1-(cyclopropylcarbonyl)piperidin-4-yl]methyl}-4,6-diazaspiro[2.4]hept-4-en-7-one] | 88.1 | 759 | > 10 | 2510 | 1700

The remaining lines, values ahead:

Row | inhibition at 10 µM [1] [%] | IC50 [1] [nM] | IC50 [2] [µM] | IC50 [3] [nM] | IC50 [4] [nM] | Compound
10 | 99.4 | 93.3 | > 10 | 263 | 288 | O=C(C1CC1)N1CC(CN2C(=O)C3(CC3)N=C2c2ccc(-c3ccc(-c4cccnc4)cc3)cc2)C1 [compound 60, 6-{[1-(Cyclopropylcarbonyl)azetidin-3-yl]methyl}-5-(4′-pyridin-3-ylbiphenyl-4-yl)-4,6-diazaspiro[2.4]hept-4-en-7-one]
11 | 115 | 74.1 | > 10 | 75.9 | 85.1 | O=C(C1CC1)N1CC[C@@H](CN2C(=O)C3(CCN(Cc4ccccc4)CC3)N=C2c2ccc(-c3ccc4[nH]ccc4c3)cc2)C1 [compound 63, (R)-2-(4-(1H-Indol-5-yl)phenyl)-8-benzyl-3-((1-(cyclopropanecarbonyl)pyrrolidin-3-yl)methyl)-1,3,8-triazaspiro[4.5]dec-1-en-4-one]
12 | 106 | 74.1 | > 10 | 1100 | 282 | O=C(C1CC1)N1CC[C@@H](CN2C(=O)C3(CCCC3)N=C2c2ccc(-c3cccc4ncccc34)cc2)C1 [compound 66, 3-{[(3R)-1-(Cyclopropylcarbonyl)pyrrolidin-3-yl]methyl}-2-(4-quinolin-5-ylphenyl)-1,3-diazaspiro[4.4]non-1-en-4-one]
13 | 100 | 282 | > 10 | 1620 | 1550 | O=C(C1CC1)N1CC[C@@H](CN2C(=O)C3(CCCC3)N=C2c2ccc(-c3cccc4cnccc34)cc2)C1 [compound 67, 3-{[(3R)-1-(Cyclopropylcarbonyl)pyrrolidin-3-yl]methyl}-2-(4-isoquinolin-5-ylphenyl)-1,3-diazaspiro[4.4]non-1-en-4-one]
14 | 107 | 63.1 | > 10 | 339 | 162 | O=C(C1CC1)N1CC[C@@H](CN2C(=O)C3(CCCC3)N=C2c2ccc(-c3cccc4[nH]ccc34)cc2)C1 [compound 68, 3-{[(3R)-1-(Cyclopropylcarbonyl)pyrrolidin-3-yl]methyl}-2-[4-(1H-indol-4-yl)phenyl]-1,3-diazaspiro[4.4]non-1-en-4-one]
15 | 100 | 224 | > 10 | 1150 | 851 | O=C(C1CC1)N1CC[C@@H](CN2C(=O)C3(CCCC3)N=C2c2ccc(-c3ccc4ccncc4c3)cc2)C1 [compound 69, 3-{[(3R)-1-(Cyclopropylcarbonyl)pyrrolidin-3-yl]methyl}-2-(4-isoquinolin-7-ylphenyl)-1,3-diazaspiro[4.4]non-1-en-4-one]
16 | 92.5 | 537 | > 10 | ~2400 | 1350 | O=C(C1CC1)N1CC[C@@H](CN2C(=O)C3(CCCC3)N=C2c2ccc(-c3cccc(-c4cc[nH]n4)c3)cc2)C1 [compound 70, 3-{[(3R)-1-(Cyclopropylcarbonyl)pyrrrolidin-3-yl]methyl}-2-[3′-(1H-pyrazol-3-yl)biphenyl-4-yl]-1,3-diazaspiro[4.4]non-1-en-4-one]
17 | 106 | 47.9 | > 10 | 1380 | 174 | Cc1cc(-c2ccc3occc3c2)ccc1C1=NC2(CCCC2)C(=O)N1C[C@@H]1CCN(C(=O)C2CC2)C1 [compound 72, 2-[4-(1-Benzofuran-5-yl)-2-methylphenyl]-3-{[(3R)-1-(cyclopropylcarbonyl)pyrrolidin-3-yl]methyl}-1,3-diazaspiro[4.4]non-1-en-4-one]
18 | 111 | 33.1 | > 10 | ~28.8 | 64.6 | Cc1cc(-c2ccc3[nH]ccc3c2)ccc1C1=NC2(CCCC2)C(=O)N1C[C@@H]1CCN(C(=O)C2CC2)C1 [compound 73, 3-{[(3R)-1-(Cyclopropylcarbonyl)pyrrolidin-3-yl]methyl}-2-[4-(1H-indol-5-yl)-2-methylphenyl]-1,3-diazaspiro[4.4]non-1-en-4-one]
19 | 114 | 22.4 | > 10 | 8.71 | 60.3 | Cc1cc(-c2ccc3cnccc3c2)ccc1C1=NC2(CCCC2)C(=O)N1C[C@@H]1CCN(C(=O)C2CC2)C1 [compound 74, 3-{[(3R)-1-(cyclopropylcarbonyl)pyrrolidin-3-yl]methyl}-2-(4-isoquinolin-6-yl-2-methylphenyl)-1,3-diazaspiro[4.4]non-1-en-4-one]
20 | 92.7 | 513 | > 10 | 5890 | 2140 | O=C(C1CC1)N1CCC(CN2C(=O)C3(CCCC3)N=C2c2ccc(-c3ccc4occc4c3)cc2)CC1 [compound 75, 1-[4-(1-Benzofuran-5-yl)phenyl]-3-{[1-(cyclopropylcarbonyl)piperidin-4-yl]methyl}-1,3-diazaspiro[4.4]non-1-en-4-one]
21 | 99.2 | 129 | > 10 | 513 | 794 | O=C(C1CC1)N1CCC(CN2C(=O)C3(CCCC3)N=C2c2ccc(-c3ccc4[nH]ccc4c3)cc2)CC1 [compound 76, 3-{[1-(Cyclopropylcarbonyl)piperidin-4-yl]methyl}-2-[4-(1H-indol-5-yl)phenyl]-1,3-diazaspiro[4.4]non-1-en-4-one]
